Experimental data published in US20100099703A1, “PHENYLAMINO-SUBSTITUTED PIPERIDINE COMPOUNDS, THEIR PREPARATION AND USE AS MEDICAMENTS” (priority 2006, published 2010).

Target: T1, rat Y5 receptor (Rattus norvegicus, UniProt Q63634)
T1 construct: expressed in transfected cells; host or cells: C6 cells (membrane preparation)
T1 sequence (Q63634 1-445): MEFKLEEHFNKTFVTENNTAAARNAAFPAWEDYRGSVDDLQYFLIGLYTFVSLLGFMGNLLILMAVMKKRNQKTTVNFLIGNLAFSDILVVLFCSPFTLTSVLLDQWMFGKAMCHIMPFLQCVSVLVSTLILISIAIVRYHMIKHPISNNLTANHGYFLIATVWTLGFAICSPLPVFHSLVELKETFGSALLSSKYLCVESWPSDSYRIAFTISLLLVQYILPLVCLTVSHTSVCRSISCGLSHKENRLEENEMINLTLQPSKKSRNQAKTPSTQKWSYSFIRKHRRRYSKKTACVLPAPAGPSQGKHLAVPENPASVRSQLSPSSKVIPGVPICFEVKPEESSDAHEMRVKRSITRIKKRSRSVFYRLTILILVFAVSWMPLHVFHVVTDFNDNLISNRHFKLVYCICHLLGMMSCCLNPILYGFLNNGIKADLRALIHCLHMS
Assay: Neuropeptide Y5 receptor binding ([125I]-PYY displacement, membranes of transfected C6 cells)
Conditions: radioligand [125I]-PYY 100 pM, C6 cells transfected with rat Y5 receptor; for inhibition at 1 µM: compound at 10^−6 M
Description: Neuropeptide Y5 Receptor Binding Studies:
The methods used for membrane preparation and binding are similar to those described by Y. Hu, B. T. Bloomquist et al. in Y. Hu, B. T. Bloomquist et al., The Journal of Biological Chemistry, 1996, 271, 26315-26319 with modifications. Said literature description is herewith incorporated by reference and forms part of the disclosure. Cells C6 were transfected with the rat Y5 receptor. The cells were grown under standard culture conditions in 150 cm^2 dishes and they were harvested using a rubber scraper and 10 ml PBS. The cells from five dishes were collected and centrifuged 2.500 g for 5 min (4° C.). The pellet was washed by resuspending in 3 ml buffer (Tris-HCl 10 mM, pH 7.4), homogenized using a Potter S homogenizer, 10 strokes at 600 rpm and centrifuged 48.000 g for 20 min (4° C.). The pellet was resuspended in 8 ml membrane buffer (Tris-HCl 25 mM, NaCl 120 mM, KCl 5 mM, KH2PO4 1.2 mM, CaCl2 2.5 mM, MgSO4 1.2 mM, BSA 0.15 mg/ml, Bacitracine 0.5 mg/ml, pH 7.4) and rehomogenized using the Potter S, 10 strokes at 600 rpm. The protein concentration in the incubation was 40 μg/ml. The radioligand was [^125I]-PYY (100 pM) in a total incubation volume of 200 μl. Following incubation at 25° C. for 2 h, the reaction was stopped by addition of 5 ml ice-cold buffer (Tris-HCl 25 mM, NaCl 120 mM, KCl 5 mM, KH2PO4 1.2 mM, CaCl2 2.5 mM, MgSO4 1.2 mM, pH 7.4) and rapid filtration in a Harvester Brandell Cell using filters (Schleicher & Schuell GF 3362) pretreated for two hours with 0.5% polyethyleneimine. Filters were washed one time with 5 ml ice-cold buffer. The filters were placed into plastic scintilation vials and 5 ml scintilation cocktail Ecoscint H were added. The quantity of radioactivity present was determined in a Wallac Winspectral 1414 counter. Non specific binding was determined in the presence of 1 μM de pNPY. All binding assays were done in triplicate.

SMILES	inhibition at 1 µM	IC50
O=C(CN1CCC(Nc2ccccc2O)CC1)Nc1cnc2ccccc2c1 [Example 1, 2-[4-(2-Hydroxy-phenylamino)-piperidin-1-yl]-N-quinolin-3-yl-acetamide]	5.6%	
O=C(CN1CCC(Nc2ccccc2O)CC1)Nc1ccc(C(=O)c2ccccc2)cc1 [Example 2, N-(4-Benzoyl-phenyl)-2-[4-(2-hydroxy-phenylamino)-piperidin-1-yl]-acetamide]	62.5%	
CCn1c2ccccc2c2cc(NC(=O)CN3CCC(Nc4ccccc4O)CC3)ccc21 [Example 3, N-(9-Ethyl-9H-carbazol-3-yl)-2-[4-(2-hydroxy-phenylamino)-piperidin-1-yl]-acetamide]	97.8%	66.1 nM
O=C(CN1CCC(Nc2ccccc2O)CC1)Nc1ccc(C2CCCCC2)cc1 [Example 4, N-(4-Cyclohexyl-phenyl)-2-[4-(2-hydroxy-phenylamino)-piperidin-1-yl]-acetamide]	35.3%	
O=C(CN1CCC(Nc2ccccc2O)CC1)Nc1ccc2ncccc2c1 [Example 5, 2-[4-(2-Hydroxy-phenylamino)-piperidin-1-yl]-N-quinolin-6-yl-acetamide]	22.7%	
O=C(CN1CCC(Nc2ccccc2O)CC1)Nc1ccc2c(c1)-c1ccccc1C2=O [Example 6, 2-[4-(2-Hydroxy-phenylamino)-piperidin-1-yl]-N-(9-oxo-9H-fluoren-3-yl)-acetamide]	95%	57.5 nM
CC(=O)c1ccc(NC(=O)CN2CCC(Nc3ccccc3O)CC2)cc1 [Example 7, N-(4-Acetyl-phenyl)-2-[4-(2-hydroxy-phenylamino)-piperidin-1-yl]-acetamide]	14%	
O=C(CN1CCC(Nc2ccccc2O)CC1)Nc1ccc2c(c1)CCCC2=O [Example 9, 2-[4-(2-Hydroxy-phenylamino)-piperidin-1-yl]-N-(5-oxo-5,6,7,8-tetrahydro-naphthalen-2-yl)-acetamide]	44.7%	
O=C(CN1CCC(Nc2cccc(O)c2)CC1)Nc1ccc2ncccc2c1 [Example 13, 2-[4-(3-Hydroxy-phenylamino)-piperidin-1-yl]-N-quinolin-6-yl-acetamide]	27.8%	
CCn1c2ccccc2c2cc(NC(=O)CN3CCC(Nc4ccc(O)cc4)CC3)ccc21 [Example 15, N-(9-Ethyl-9H-carbazol-3-yl)-2-[4-(4-hydroxy-phenylamino)-piperidin-1-yl]-acetamide]	74.6%	
COc1ccccc1NC1CCN(CC(=O)Nc2ccc3c(c2)-c2ccccc2C3=O)CC1 [Example 18, 2-[4-(2-Methoxy-phenylamino)-piperidin-1-yl]-N-(9-oxo-9H-fluoren-3-yl)-acetamide]	96.1%	
COc1ccccc1NC1CCN(CC(=O)Nc2cnc3ccccc3c2)CC1 [Example 21, 2-[4-(2-Methoxy-phenylamino)-piperidin-1-yl]-N-quinolin-3-yl-acetamide]	19.6%	
COc1ccccc1NC1CCN(CC(=O)Nc2ccc(C(=O)c3ccccc3)cc2)CC1 [Example 22, N-(4-Benzoyl-phenyl)-2-[4-(2-methoxy-phenylamino)-piperidin-1-yl]-acetamide]	55.7%	
COc1cccc(NC2CCN(CC(=O)Nc3ccc4c(c3)-c3ccccc3C4=O)CC2)c1 [Example 24, 2-[4-(3-Methoxy-phenylamino)-piperidin-1-yl]-N-(9-oxo-9H-fluoren-3-yl)-acetamide]	97.5%	
COc1cccc(NC2CCN(CC(=O)Nc3ccc(C(=O)c4ccccc4)cc3)CC2)c1 [Example 26, N-(4-Benzoyl-phenyl)-2-[4-(3-methoxy-phenylamino)-piperidin-1-yl]-acetamide]	37%	
COc1ccc(NC2CCN(CC(=O)Nc3ccc4c(c3)-c3ccccc3C4=O)CC2)cc1 [Example 28, 2-[4-(4-Methoxy-phenylamino)-piperidin-1-yl]-N-(9-oxo-9H-fluoren-3-yl)-acetamide]	97.3%	
CCN(CCO)c1ccc(NC(=O)CN2CCC(Nc3ccc(OC)cc3)CC2)cc1 [Example 29, N-{4-[Ethyl-(2-hydroxy-ethyl)-amino]-phenyl}-2-[4-(4-methoxy-phenylamino)-piperidin-1-yl]-acetamide]	69%	
O=C(CN1CCC(Nc2ccccc2)CC1)Nc1ccc2c(c1)-c1ccccc1C2=O [Example 33, N-(9-Oxo-9H-fluoren-3-yl)-2-(4-phenylamino-piperidin-1-yl)-acetamide]	108%	102 nM
O=C(CN1CCC(Nc2ccccc2)CC1)Nc1ccc2c(c1)CCCC2=O [Example 35, N-(5-Oxo-5,6,7,8-tetrahydro-naphthalen-2-yl)-2-(4-phenylamino-piperidin-1-yl)-acetamide]	67.1%	
O=C(CN1CCC(N(CC(=O)Nc2ccc3c(c2)-c2ccccc2C3=O)c2ccc(O)cc2)CC1)Nc1ccc2c(c1)-c1ccccc1C2=O [Example 38, 2-(4-{(4-Hydroxy-phenyl)-[(9-oxo-9H-fluoren-3-ylcarbamoyl)-methyl]-amino}-piperidin-1-yl)-N-(9-oxo-9H-fluoren-3-yl)-acetamide]	45.1%	

Further lines, results first:

inhibition at 1 µM	IC50	SMILES
105%	34.6 nM	CCn1c2ccccc2c2cc(NC(=O)CN3CCC(Nc4cccc(O)c4)CC3)ccc21 [Example 10, N-(9-Ethyl-9H-carbazol-3-yl)-2-[4-(3-hydroxy-phenylamino)-piperidin-1-yl]-acetamide]
76.9%	35.6 nM	O=C(CN1CCC(Nc2cccc(O)c2)CC1)Nc1ccc2c(c1)-c1ccccc1C2=O [Example 11, 2-[4-(3-Hydroxy-phenylamino)-piperidin-1-yl]-N-(9-oxo-9H-fluoren-3-yl)-acetamide]
51.2%		CCN(CCO)c1ccc(NC(=O)CN2CCC(Nc3cccc(O)c3)CC2)cc1 [Example 12, N-{4-[Ethyl-(2-hydroxy-ethyl)-amino]-phenyl}-2-[4-(3-hydroxy-phenylamino)-piperidin-1-yl]-acetamide]
101%		O=C(CN1CCC(Nc2ccc(O)cc2)CC1)Nc1ccc2c(c1)-c1ccccc1C2=O [Example 16, 2-[4-(4-Hydroxy-phenylamino)-piperidin-1-yl]-N-(9-oxo-9H-fluoren-3-yl)-acetamide]
101%	46.9 nM	CCn1c2ccccc2c2cc(NC(=O)CN3CCC(Nc4ccccc4OC)CC3)ccc21 [Example 17, N-(9-Ethyl-9H-carbazol-3-yl)-2-[4-(2-methoxy-phenylamino)-piperidin-1-yl]-acetamide]
96.9%		CCn1c2ccccc2c2cc(NC(=O)CN3CCC(Nc4cccc(OC)c4)CC3)ccc21 [Example 23, N-(9-Ethyl-9H-carbazol-3-yl)-2-[4-(3-methoxy-phenylamino)-piperidin-1-yl]-acetamide]
51.6%		CCN(CCO)c1ccc(NC(=O)CN2CCC(Nc3cccc(OC)c3)CC2)cc1 [Example 25, N-{4-[Ethyl-(2-hydroxy-ethyl)-amino]-phenyl}-2-[4-(3-methoxy-phenylamino)-piperidin-1-yl]-acetamide]
91.1%		CCn1c2ccccc2c2cc(NC(=O)CN3CCC(Nc4ccc(OC)cc4)CC3)ccc21 [Example 27, N-(9-Ethyl-9H-carbazol-3-yl)-2-[4-(4-methoxy-phenylamino)-piperidin-1-yl]-acetamide]
80.7%	23.7 nM	CCn1c2ccccc2c2cc(NC(=O)CN3CCC(Nc4ccccc4)CC3)ccc21 [Example 32, N-(9-Ethyl-9H-carbazol-3-yl)-2-(4-phenylamino-piperidin-1-yl)-acetamide]
72.6%		CCN(CCO)c1ccc(NC(=O)CN2CCC(Nc3ccccc3)CC2)cc1 [Example 34, N-{4-[Ethyl-(2-hydroxy-ethyl)-amino]-phenyl}-2-(4-phenylamino-piperidin-1-yl)-acetamide]
